Like-named read-outs stand apart in the source and are kept apart here.
Columns and labels:
[1] = tested on: TNF-α production in human PBMCs; assay: Induction of TNF-α in human PBMCs (ELISA); format: cell-based; conditions: PBMC, 24 h, read-out: PBMC assay TNFa EC50
Description: In this example, the induction activity of the compounds of the present application on human PBMCs for TNF-α and IFN-α production was assessed in human PBMCs (human peripheral blood mononuclear cells). The human PBMCs were purchased from Shanghai Saily Biotechnology Co., Ltd. (Cat. No. XFB—HP100B). PBMC cells were treated with the compounds. The compounds of the present application are diluted in DMSO, for example, to about 15 mM. The reference compound was added to the plates in sequence after diluted to 5 mg/mL. The compounds were serially 3- or 4-fold diluted to 8 concentrations and added to plates in duplicate (Table 2-1 for serial 3-fold dilutions and Table 2-2 for serial 4-fold dilutions). For the negative control wells, DMSO was added at 0.4 μL/well, and a 5 mg/mL reference compound solution was added to the positive control wells at 0.4 μL/well. The final concentration of DMSO was 0.2%. Frozen human PBMCs in cryopreservation tubes were quickly thawed in a 37° C. water bath and transferred into 50-mL centrifuge tubes. Prewarmed RPMI1640 medium was gradually added and the mixture was well mixed and centrifuged for 15 min before the supernatant was discarded. The cells were resuspended in a culture medium and counted. The cell suspension was adjusted to 2.5×10^6 cells/mL with the culture medium. Diluted cells were added at 200 μL/500,000 cells/well in 96-well plates containing the compounds. The cell plates were incubated at 37° C./5% CO2 for 24 h.
The plate was then washed thrice. […] Termination of reaction: The reaction was terminated by quickly adding the stop solution at 100 μL/well. Plate reading: The reading at wavelength 450 nm was detected by an M2e instrument within 10 min after the termination.
Compound activity data analysis: The OD450 values were converted to TNF-α and IFN-α contents by GraphPad Prism software analysis and fitted to give dose-response curves of the compounds. The EC50 values for the compounds were calculated, where the Emax values are the maximal values for TNF-α and IFN-α.

[2] = target: T1, hTLR7 (human Toll-like receptor 7) (Homo sapiens, UniProt Q9NYK1); assay: HEK-Blue hTLR7 reporter assay (QUANTI-Blue, OD650); format: cell-based; conditions: HEK-Blue hTLR7 cells, 24 h, read-out: Reporter assay TLR7 EC50
T1 construct: host or cells: HEK-Blue hTLR7 (HEK293-derived reporter cells)
T1 sequence (Q9NYK1 27-1049): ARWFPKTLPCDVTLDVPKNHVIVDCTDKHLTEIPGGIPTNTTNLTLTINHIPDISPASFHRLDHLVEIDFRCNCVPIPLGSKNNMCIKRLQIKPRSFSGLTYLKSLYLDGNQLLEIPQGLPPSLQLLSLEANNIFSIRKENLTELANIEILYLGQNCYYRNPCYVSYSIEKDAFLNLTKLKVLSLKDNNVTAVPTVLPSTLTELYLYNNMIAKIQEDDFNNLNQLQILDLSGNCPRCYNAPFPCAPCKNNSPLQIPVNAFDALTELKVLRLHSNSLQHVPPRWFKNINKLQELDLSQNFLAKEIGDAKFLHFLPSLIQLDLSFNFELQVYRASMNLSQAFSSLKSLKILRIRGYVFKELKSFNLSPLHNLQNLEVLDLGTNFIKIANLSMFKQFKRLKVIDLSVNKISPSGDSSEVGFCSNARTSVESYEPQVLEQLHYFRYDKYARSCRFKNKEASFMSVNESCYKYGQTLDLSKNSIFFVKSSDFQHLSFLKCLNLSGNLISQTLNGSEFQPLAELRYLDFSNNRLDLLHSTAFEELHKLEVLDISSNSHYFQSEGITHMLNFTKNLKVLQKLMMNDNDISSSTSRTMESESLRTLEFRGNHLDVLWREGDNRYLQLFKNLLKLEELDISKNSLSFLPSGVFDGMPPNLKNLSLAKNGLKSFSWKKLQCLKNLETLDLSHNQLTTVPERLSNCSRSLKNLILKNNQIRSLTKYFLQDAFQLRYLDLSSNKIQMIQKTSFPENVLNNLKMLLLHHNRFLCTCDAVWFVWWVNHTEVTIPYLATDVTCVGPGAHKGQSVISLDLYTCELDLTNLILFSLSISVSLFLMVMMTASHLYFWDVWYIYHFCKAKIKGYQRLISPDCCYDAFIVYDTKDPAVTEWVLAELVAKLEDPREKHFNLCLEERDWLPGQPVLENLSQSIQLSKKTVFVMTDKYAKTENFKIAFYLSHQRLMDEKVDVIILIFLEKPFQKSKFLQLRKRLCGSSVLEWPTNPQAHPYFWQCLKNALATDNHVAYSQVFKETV
Description: In this example, the agonistic activity of the compounds of the present application on hTLR7 (human Toll-like receptor 7) and hTLR8 (human Toll-like receptor 8) was assessed; the induction activity of the compounds on human PBMCs for TNF-α and IFN-α production was assessed in human PBMCs (human peripheral blood mononuclear cells).
All compounds were formulated in DMSO into 30 mM stock solutions and preserved at 4° C. The reference compound ([…], Cat. No. tlrl-r848-5) was purchased from InvivoGen and formulated into a 5 mg/mL stock solution in DMSO and preserved in a freezer at −20° C. HEK-Blue hTLR7 and HEK-Blue hTLR8 cell lines were purchased from InvivoGen, and human PBMCs were purchased from Shanghai Saily Biotechnology Co., Ltd. (Cat. No. XFB—HP100B).
The major instruments used in this study were multifunctional microplate reader Flexstation III (Molecular Device), Envision (Perkin Elmer), M2e (Molecular Device), and Echo555 (Labcyte). 2.1 Agonistic activity of compounds on hTLR7 (human Toll-like receptor 7) and hTLR8 (human Toll-like receptor 8)
Compound dilution: The compounds of the present application are diluted in DMSO, for example, to about 15 mM. The reference compound was added to the plates in sequence after dilution. The compounds were serially 3-fold diluted to 10 concentrations and added to 96-well plates in duplicate.
For the negative control wells, DMSO was added at 0.2 μL/well, and the reference compound was added to the positive control wells. The final concentration of DMSO was 0.2%.
Cell plating: When an 80% confluence of HEK Blue hTLR7&8 cells in the culture flask was observed under a microscope, the culture medium was discarded, 10 mL of detection medium was added, and the cells were separated by pipetting. The cells were counted on a cytometer and diluted to 500,000 cells/mL. The cells were plated at 100 μL/50,000 cells/well in the 96-well plates containing the compounds. The compounds and cells were co-incubated at 37° C. in a 5% CO2 incubator for 24 hours.
Compound activity detection: 20 μL of cell supernatant was taken from each well and added to a plate containing QUANTI-Blue™ reagent at 180 μL/well. The plate was incubated at 37° C. for 1 hour, and the absorbance at 650 nm (OD650) was measured on the multifunctional microplate reader Flexstation III.
Compound activity data analysis: The OD650 values were analyzed by GraphPad Prism software and fitted to give dose-response curves of the compounds. The EC50 values of compounds were calculated.

[3] = serial 4-fold dilutions, class symbols

CCCN(OCc1ccc(N)cc1)C(=O)C1=Cc2ccc(-c3cncc(CO)c3)cc2N=C(N)C1 [Compound 15]
EC50 ([1]; serial 3-fold dilutions): 3 nM | EC50 [2]: 712 nM

CCCN(OCc1ccc(N)cc1)C(=O)C1=Cc2ccc(-c3cncc(C(=O)O)c3)cc2N=C(N)C1 [Compound 32]
EC50 [1, 3]: 10 to 50 nM | EC50 ([2]; class symbols): > 1000 nM

CCCN(OCc1ccc(N)cc1)C(=O)C1=Cc2ccc(-c3cccc(S(N)(=O)=O)c3)cc2N=C(N)C1 [Compound 35]
EC50 ([1]; serial 3-fold dilutions): 5 nM | EC50 [2]: 758 nM

CCCN(OCc1ccc(N)cc1)C(=O)C1=Cc2ccc(-c3cncc(S(N)(=O)=O)c3)cc2N=C(N)C1 [Compound 36]
EC50 ([1]; serial 3-fold dilutions): 12.2 nM | EC50 [2]: 1080 nM

CCCN(OCc1ccc(N)cc1)C(=O)C1=Cc2ccc(C(=O)N3CC(CO)C3)cc2N=C(N)C1 [Compound 37]
EC50 [1, 3]: 10 to 50 nM | EC50 ([2]; class symbols): > 1000 nM

CCCN(OCc1ccc(N)cc1)C(=O)C1=Cc2ccc(C(=O)Nc3cccnc3)cc2N=C(N)C1 [Compound 40]
EC50 ([1]; serial 3-fold dilutions): 9.08 nM | EC50 [2]: 11700 nM

CCCN(OCc1ccc(N)cc1)C(=O)C1=Cc2ccc(-c3cccc(S(=O)(=O)N4CC(O)C4)c3)cc2N=C(N)C1 [Compound 41]
EC50 ([1]; serial 3-fold dilutions): 15.3 nM | EC50 [1, 3]: ≤ 10 nM | EC50 [2]: 2240 nM

CCCN(OCc1ccc(N)cc1)C(=O)C1=Cc2ccc(-c3ccc(C(=O)N4CC[C@@H](O)C4)cc3)cc2N=C(N)C1 [Compound 42]
EC50 ([1]; serial 3-fold dilutions): 37 nM | EC50 [1, 3]: 10 to 50 nM | EC50 ([2]; class symbols): > 1000 nM

CCCN(OCc1ccc(N)cc1)C(=O)C1=Cc2ccc(-c3ccc4c(c3)C(=O)OC4)cc2N=C(N)C1 [Compound 43]
EC50 ([1]; serial 3-fold dilutions): 8.04 nM | EC50 [2]: 180 nM

NC1=Nc2cc(-c3cncc(CO)c3)ccc2C=C(C(=O)N(CC2CC2)OCc2ccc(N)cc2)C1 [Compound 45]
EC50 ([1]; serial 3-fold dilutions): 7.33 nM | EC50 [2]: 1160 nM

CCCN(OCc1ccc(N)cc1)C(=O)C1=Cc2ccc(C(=O)N3CCC(O)C3)cc2N=C(N)C1 (stereo not shown) [Compound 46]
EC50 [1, 3]: 10 to 50 nM | EC50 ([2]; class symbols): > 1000 nM

CCCN(OCc1ccc(N)cc1)C(=O)C1=Cc2ccc(C(=O)N3CCOC(CO)C3)cc2N=C(N)C1 (stereo not shown) [Compound 47]
EC50 [1, 3]: 10 to 50 nM | EC50 ([2]; class symbols): > 1000 nM

CCCN(OCc1ccc(N)cc1)C(=O)C1=Cc2ccc(C(=O)NCCO)cc2N=C(N)C1 [Compound 48]
EC50 [1, 3]: 10 to 50 nM | EC50 ([2]; class symbols): > 1000 nM

CCCN(OCc1ccc(N)cc1)C(=O)C1=Cc2ccc(-c3cncc(Cl)c3)cc2N=C(N)C1 [Compound 49]
EC50 ([1]; serial 3-fold dilutions): 26.1 nM | EC50 [2]: 245 nM

CCCN(OCc1ccc(N)cc1)C(=O)C1=Cc2ccc(-c3cncc(C#N)c3)cc2N=C(N)C1 [Compound 50]
EC50 ([1]; serial 3-fold dilutions): 7.7 nM | EC50 [2]: 274 nM

CCCN(OCc1ccc(N)cc1)C(=O)C1=Cc2ccc(-c3ccc(C#N)nc3)cc2N=C(N)C1 [Compound 51]
EC50 ([1]; serial 3-fold dilutions): 17.3 nM | EC50 [2]: 428 nM

CCCN(OCc1ccc(N)cc1)C(=O)C1=Cc2ccc(-c3cncc(N)c3)cc2N=C(N)C1 [Compound 52]
EC50 ([1]; serial 3-fold dilutions): 8.61 nM | EC50 [2]: 355 nM

CCCN(OCc1ccc(N)cc1)C(=O)C1=Cc2ccc(-c3cncc(C(F)(F)F)c3)cc2N=C(N)C1 [Compound 53]
EC50 [1, 3]: 10 to 50 nM | EC50 ([2]; class symbols): 100 to 1000 nM

CCCN(OCc1ccc(N)cc1)C(=O)C1=Cc2ccc(-c3cncc(CN)c3)cc2N=C(N)C1 [Compound 54]
EC50 ([1]; serial 3-fold dilutions): 3.98 nM | EC50 [2]: 528 nM

CCCN(OCc1ccc(N)cc1)C(=O)C1=Cc2ccc(-c3ccc(N4CCOCC4)nc3)cc2N=C(N)C1 [Compound 55]
EC50 ([1]; serial 3-fold dilutions): 33.5 nM | EC50 [2]: 685 nM

CCCN(OCc1ccc(N)cc1)C(=O)C1=Cc2ccc(-c3cncc(S(C)(=O)=O)c3)cc2N=C(N)C1 [Compound 56]
EC50 ([1]; serial 3-fold dilutions): 7.35 nM | EC50 [2]: 664 nM

NC1=Nc2cc(-c3cncc(CO)c3)ccc2C=C(C(=O)N(CCC(F)(F)F)OCc2ccc(N)cc2)C1 [Compound 58]
EC50 [1, 3]: ≤ 10 nM | EC50 ([2]; class symbols): 100 to 1000 nM

CCCN(OCc1ccc(N)cc1Cl)C(=O)C1=Cc2ncc(-c3cncc(CO)c3)cc2N=C(N)C1 [Compound 59]
EC50 [1, 3]: ≤ 10 nM | EC50 ([2]; class symbols): 100 to 1000 nM

CCCN(OCc1ccc(N)cc1OC)C(=O)C1=Cc2ncc(-c3cncc(CO)c3)cc2N=C(N)C1 [Compound 60]
EC50 [1, 3]: ≤ 10 nM | EC50 ([2]; class symbols): 100 to 1000 nM

CCCN(OCc1ccc(N)cc1)C(=O)C1=Cc2ncc(-c3cncc(CO)c3)cc2N=C(N)C1 [Compound 61]
EC50 [1, 3]: ≤ 10 nM | EC50 ([2]; class symbols): 100 to 1000 nM

CCCN(OCc1ccc(N)cc1)C(=O)C1=Cc2ccc(-c3cncc(CO)c3)nc2N=C(N)C1 [Compound 62]
EC50 [1, 3]: ≤ 10 nM | EC50 ([2]; class symbols): 100 to 1000 nM

CCCN(OCc1ccc(N)cc1)C(=O)C1=Cc2ccc(-c3cnc4c(c3)C(=O)OC4)nc2N=C(N)C1 [Compound 63]
EC50 [1, 3]: ≤ 10 nM | EC50 ([2]; class symbols): 100 to 1000 nM

CCCN(OCc1ccc(N)cc1)C(=O)C1=Cc2ccc(-c3cccc(S(=O)(=O)NCCO)c3)cc2N=C(N)C1 [Compound 64]
EC50 [1, 3]: ≤ 10 nM | EC50 ([2]; class symbols): 100 to 1000 nM

CCCN(OCc1ccc(N)cc1)C(=O)C1=Cc2ccc(-c3cccc(S(=O)(=O)N4CCC(O)CC4)c3)cc2N=C(N)C1 [Compound 66]
EC50 [1, 3]: ≤ 10 nM | EC50 ([2]; class symbols): 100 to 1000 nM

CCCN(OCc1ccc(N)cc1)C(=O)C1=Cc2ccc(-c3cccc(S(=O)(=O)N4CCNCC4)c3)cc2N=C(N)C1 [Compound 67]
EC50 [1, 3]: ≤ 10 nM | EC50 ([2]; class symbols): 100 to 1000 nM

CCCN(OCc1ccc(N)cc1)C(=O)C1=Cc2ccc(-c3cccc(S(=O)(=O)N4CCOCC4)c3)cc2N=C(N)C1 [Compound 68]
EC50 [1, 3]: ≤ 10 nM | EC50 ([2]; class symbols): 100 to 1000 nM

Source: patent US20250059141A1, “TLR MODULATOR AND USE THEREOF” (DUALITY BIOLOGICS (SUZHOU) CO., LTD., priority 2021, published 2025)
